Measurements from patent publication US9018173B2, “Materials and methods for suppressing inflammatory and neuropathic pain” (Indiana University Research and Technology Corp., priority 2010, dated 2015).
Residues, ends and D or L forms follow the SMILES beside them. No end group written: not given here.

What was measured:
[1] = tested on: depression/despair-associated behavior; experiment: Tail suspension test (TST); format: in vivo, C57BL6 mice
Experimental: The light-dark box test and the elevated plus maze were used as measures of anxiety-associated behaviors. The tail suspension test was performed to evaluate despair- and depression-associated behavior.
Depression/Despair-behavior testing. Since rodents such as mice and rats display immobile postures when placed in inescapable stressful situations, immobility behavior in the tail suspension test (TST) or forced swim test (FST) is used as a measure of “depression” or “despair”-associated behavior. Furthermore, administering antidepressant treatments prior to testing reduces immobility behavior. Therefore TST and FST are often used to screen novel drugs for depressant or anti-depressant properties.
Tail suspension test as a measure of depression-associated behavior. Immediately following the EPM test, the TST was conducted according to standard procedure between 8:00 AM and 2:00 PM. Cryan, J. F., Mombereau, C., & Vassout, A. The tail suspension test as a model for assessing antidepressant activity: review of pharmacological and genetic studies in mice. Neurosci. Biobehay. Rev. 29, 571-625 (2005). Briefly, each mouse was suspended by the tail at a height of 40 cm by taping the rail to a horizontal bar so that the tail is vertical to the bar. Behavior was video recorded for 5 min and later analyzed by an experimenter, whom was blind to the treatments. […] If a mouse climbed its tail the mouse was gently pulled back down and the trial continued. Mice that climbed their tails for more than 20% of the trial (i.e. >60 seconds) were eliminated from the final analysis. Duration and frequency of immobility was the main parameters measured. Mice injected with the scrambled control peptide were immobile approximately 26% of the TST duration which is equivalent to baseline immobility durations (approximately 27%) observed in C57B16 mice in another recent study.

[2] = Biodistribution after i.p. injection (dot blot, FITC fluorescence); settings: 25 mg/kg i.p.
[3] = tested on: anxiety-associated behavior; experiment: Light-Dark Box test (LDBT); format: in vivo, C57BL6 mice
Experimental: The light-dark box test and the elevated plus maze were used as measures of anxiety-associated behaviors. The tail suspension test was performed to evaluate despair- and depression-associated behavior. Anxiety-behavior testing Anxiety occurs when there is conflict between risk and reward. The Light-Dark Box test (LDBT) and the elevated plus maze (EPM) are accepted tests of anxiety-associated behavior that assess the conflict mice have against hiding in enclosed dark areas (i.e., dark box or closed arm) and their tendency to explore novel environments (i.e., white box or open arm). Lalonde, R. & Strazielle, C. […] J. Neurosci. Methods. 171, 48-52 (2008). These tests are also sensitive to anxiolytic drug treatments. Light-Dark Box test as a measure of anxiety-associated behavior. For the light-dark box test (LDBT), there were two adjoined light and dark compartments boxes with a 7 cm square opening to allow mice to move between them. The black box was covered (20 cm×40 cm×30 cm height) and the white box (20 cm×40 cm×30 cm height) was open and illuminated (40 W). Each mouse was placed into the white compartment and the white compartment was video recorded for later analyses using ANY-maze software (version 4.75, Stoelting, Wood Dale, Ill.) which is a video tracking system designed to automate testing in behavioral experiments. The main parameters were duration of time spent in the light box; the latency to enter the dark box; and the number of transitions between the light and dark box.

[4] = tested on: anxiety-associated behavior; experiment: Elevated plus maze (EPM); format: in vivo, C57BL6 mice
[5] = tested on: capsaicin-induced meningeal blood flow changes
[6] = C57BL6 mice, 10 mg/kg i.p., 1 h after injection, 5 min test

Row | Molecule | Tail Suspension Test: Active [1, 6] [s] | TST immobility as share of test duration ([1]; mouse, in vivo) | tissue distribution (dot blot, anti-TAT antibody) ([2]; 15 min post-injection) | tissue distribution (dot blot, anti-TAT antibody) ([2]; 1 h post-injection) | Light-Dark Box: Dark box latency to exit [3, 6] [s] | Light-Dark Box: Light box entries [3, 6] | LDBT time in the light box ([3]; mouse, in vivo) | EPM time in the open arm compared to the closed arm ([4]; 10 mg/kg) | Elevated Plus Maze: Closed arm entries [4, 6] | Elevated Plus Maze: Closed arm latency to enter [4, 6] [s] | Elevated Plus Maze: Closed arm latency to exit [4, 6] [s] | Elevated Plus Maze: Open arm entries [4, 6] | Elevated Plus Maze: Open arm latency to enter [4, 6] [s] | Elevated Plus Maze: Open arm latency to exit [4, 6] [s] | capsaicin-induced blood flow changes (effect in words) ([5]; dural application prior to nasal capsaicin 100 nM) | capsaicin-induced blood flow change after CGRP antagonist ([5]; prior topical administration, n=3) [%]
1 | CC[C@H](C)[C@H](NC(=O)[C@@H](NC(=O)[C@H](CC(C)C)NC(=O)[C@H](C)NC(=O)[C@H](CCC(=O)O)NC(=O)[C@H](Cc1ccccc1)NC(=O)[C@H](Cc1ccc(O)cc1)NC(=O)[C@H](CC(C)C)NC(=O)[C@H](CCSC)NC(=O)[C@H](CCC(=O)O)NC(=O)[C@H](CCCCN)NC(=O)[C@H](C)NC(=O)[C@H](CCC(=O)O)NC(=O)[C@H](Cc1c[nH]c2ccccc12)NC(=O)[C@H](CCCNC(=N)N)NC(=O)[C@H](CCCNC(=N)N)NC(=O)[C@H](CCCNC(=N)N)NC(=O)[C@H](CCC(N)=O)NC(=O)[C@H](CCCNC(=N)N)NC(=O)[C@H](CCCNC(=N)N)NC(=O)[C@H](CCCCN)NC(=O)[C@H](CCCCN)NC(=O)[C@H](CCCNC(=N)N)NC(=O)CNC(=O)[C@@H](N)Cc1ccc(O)cc1)C(C)C)C(=O)N[C@@H](CCC(=O)O)C(=O)O [TAT-Scramble, reference compound] (H-YGRKKRRQRRRWEAKEMLYFEALVIE-OH; N-terminus and C-terminus assumed) | 221.0 ± 11.3 | approximately 26% | detected in spleen and largely concentrated in lumbar dorsal root ganglion (DRG) and lumbar section of the spinal cord | also detected in kidney, brain, spinal cord and was abundant in the DRG | 53.0 ± 11.5 | 8.2 ± 0.8 | approximately 25% | approximately 30% | 16.3 ± 2.0 | 6.3 ± 2.5 | 14.7 ± 3.0 | 11.5 ± 1.6 | 5.9 ± 2.3 | 14.5 ± 3.1 | – | –
2 | CGRP8-37: CGRP antagonist (VTHRLAGLLSRSGGVVKNNFVPTNVGSKAF; ends and bridges not checked; UniProt P06881 90-119, looked up, fragment) | – | – | – | – | – | – | – | – | – | – | – | – | – | – | blocked | 5±4
